Assay results reported in article PMC5724689, “Increased Conformational Flexibility of a Macrocycle–Receptor Complex Contributes to Reduced Dissociation Rates” (Chemistry (Weinheim an Der Bergstrasse, Germany), 2017).

Key:
[1] = molecular target: T1, 14-3-3ζ (14‐3‐3 isoform ζ) (Homo sapiens, UniProt P63104); assay: biochemical; type: binding; details: for koff: 19F NMR line shape analysis, slow exchange, 50 mM HEPES, 100 mM NaCl, 2 mM MgCl2, 1% DMSO, 10% D2O, pH 7.4, room temperature, error from fitting procedure (Equation S1), read-out: dissociation rate koff (NMR); for association rate kon = koff × Kd^-1 (Figure 2b) / kon: calculated from koff (19F NMR) and ITC-derived Kd; for kon: read-out: association rate kon = koff × Kd^-1
T1 construct: 14-3-3ζ (aa 1-245) with remaining His-Tag; made in house
T1 sequence (P63104 1-245): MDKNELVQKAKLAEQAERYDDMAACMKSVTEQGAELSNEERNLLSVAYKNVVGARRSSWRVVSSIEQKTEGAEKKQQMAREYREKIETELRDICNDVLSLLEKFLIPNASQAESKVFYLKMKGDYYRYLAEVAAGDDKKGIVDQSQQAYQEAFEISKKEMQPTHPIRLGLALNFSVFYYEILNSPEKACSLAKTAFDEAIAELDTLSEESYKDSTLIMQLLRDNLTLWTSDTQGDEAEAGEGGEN

[2] = molecular target: T1, 14-3-3ζ (14‐3‐3 isoform ζ); assay: biochemical; type: binding; details: ITC, T = 303.15 K, pH 7.4; mean value of 3 runs

SMILES	koff [1]	association rate kon = koff × Kd^-1 (Figure 2b) [1]	kon [1]	Kd [2]
CC(C)C[C@H](NC(=O)[C@H](CC(=O)O)NC(=O)[C@H](CC(C)C)NC(=O)[C@]1(C)CCCCCCCC[C@@](C)(NC(=O)CNC(=O)[C@H](CCC(N)=O)NC(=O)CNC(=O)C(F)(F)F)C(=O)N[C@@H](CC(C)C)C(=O)N[C@@H](CC(=O)O)C(=O)N1)C(=O)N[C@@H](C)C(=O)N[C@@H](CO)C(N)=O [MC18]	1.58 s⁻¹	4.38 ±0.47 s^-1M^-1 10^6	4.38e+06 M⁻¹ s⁻¹	0.362 µM
CC(C)C[C@H](NC(=O)[C@H](CC(=O)O)NC(=O)[C@H](CC(C)C)NC(=O)[C@]1(C)CCCCCCCCCCCC[C@](C)(NC(=O)CNC(=O)[C@H](CCC(N)=O)NC(=O)CNC(=O)C(F)(F)F)C(=O)N[C@@H](CC(C)C)C(=O)N[C@@H](CC(=O)O)C(=O)N1)C(=O)N[C@@H](C)C(=O)N[C@@H](CO)C(N)=O [MC22]	0.45 s⁻¹	4.12 ±0.39 s^-1M^-1 10^6	4.12e+06 M⁻¹ s⁻¹	0.111 µM
